Results as given in the supplement of paper PMC8671470.
± gives the standard deviation of the averaged measurements.

How the values were obtained:
Details in all cases: 72 h
[1] = tested on: K-562; assay: cell viability (% survival relative to DMSO control, bortezomib = 0%); higher = less cytotoxic
Outline: (§1)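 Reported values are percent survival from duplicate wells, averaged. Fifteen myeloid leukaemia cell lines were treated in 384-well plates with compounds at 1, 10, 100, 1000 or 10000 nM for 72 h at 37 °C in 5% CO2. Signals from CellTiter-Glo luminescence were scaled with vehicle as 100% and a 10 µM positive control as 0%.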

[2] = tested on: Mono-Mac-6; assay: as above
Outline: as §1

[3] = tested on: KU-812; assay: as above
Outline: as §1

[4] = tested on: BV-173; assay: as above
Outline: as §1

[5] = tested on: KCL-22; assay: as above
Outline: as §1

[6] = tested on: MV4-11; assay: as above
Outline: as §1

[7] = tested on: ML-2; assay: as above
Outline: as §1

[8] = tested on: KG-1; assay: as above
Outline: as §1

[9] = tested on: THP-1; assay: as above
Outline: as §1

[10] = tested on: LAMA-84; assay: as above
Outline: as §1

[11] = tested on: HL-60; assay: as above
Outline: as §1

[12] = tested on: MOLM-13; assay: as above
Outline: as §1

[13] = tested on: NOMO-1; assay: as above
Outline: as §1

[14] = tested on: HEL; assay: as above
Outline: as §1

[15] = tested on: SHI-1; assay: as above
Outline: as §1

[16] = tested on: HL-60; assay: area under dose-response curve (viability, 1 nM-10 uM) (fraction (0-1)); higher = more sensitive
Outline: (§2)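 Area under the curve, where listed, was derived from four-parameter log-logistic fits with drc and PharmacoGx. These fits used CellTiter-Glo viability from HL-60 cells in RPMI 1640 with 10% FBS, normalised to DMSO wells and wells holding 10 μM proteasome inhibitor. The full library was rescreened on 384-well plates in duplicate at five tenfold concentrations, 1–10,000 nM, with DMSO or 100 nM of one of three metabolic inhibitors, for 72 h at 37 °C, 5% CO2.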

[17] = tested on: NOMO-1
Outline: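 Each of fifteen myeloid leukaemia cell lines was seeded in RPMI 1640 at a density titrated to its linear growth range. The cells were incubated for 72 h at 37 °C and 5% CO2 with compounds at five tenfold doses from 1 to 10,000 nM, in duplicate. After ATP luminescence was normalised to vehicle and to a positive control at 10 µM, four-parameter log-logistic curves were fitted. These curves gave the IC50.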

[18] = tested on: HL-60; assay: cell viability (% survival relative to DMSO control); higher = less cytotoxic
Outline: as §2

NS(=O)(=O)c1ccc(S(=O)(=O)Nc2cccc3c(Cl)c[nH]c23)cc1 [Indisulam]
Details	area under dose-response curve, co-treatment: AZD3965 100 nM	area under dose-response curve, co-treatment: DMSO vehicle	area under dose-response curve, co-treatment: GSK2194069 100 nM	area under dose-response curve, co-treatment: pictilisib 100 nM	cell viability, 1 nM [%]	cell viability, 10 nM [%]	cell viability, 100 nM [%]	cell viability, 1000 nM [%]	cell viability, 10000 nM [%]
[1]	–	–	–	–	113	101	89.2	65.4	36.7
[2]	–	–	–	–	101	95.3	80.3	48.2	11.1
[3]	–	–	–	–	102	99.1	108	29.9	13.7
[4]	–	–	–	–	108	87.3	110	46.6	9.34
[5]	–	–	–	–	102	104	87.4	58.6	19
[6]	–	–	–	–	99.4	84.3	56.2	0.62	0.0378
[7]	–	–	–	–	99.1	104	97.9	35.2	3.51
[8]	–	–	–	–	139	129	173	50.5	15.5
[9]	–	–	–	–	103	94.5	112	94.3	71.1
[10]	–	–	–	–	94.3	89	111	55.2	21.9
[11]	–	–	–	–	107	107	85.8	97.2	37.1
[12]	–	–	–	–	122	102	97.8	32.6	7.24
[13]	–	–	–	–	102	98.4	105	63.2	24.8
[14]	–	–	–	–	103	98.1	95.8	95.9	34.7
[15]	–	–	–	–	96.8	101	97.4	65.2	26.8
[16]	< 0.0301	< 0.0301	< 0.0301	< 0.0301	–	–	–	–	–

Details	IC50 (cell viability) [nM]
[17]	1100

cell viability [%], [18]
Details	0.001 µM	0.01 µM	0.1 µM	1 µM	10 µM
co-treatment: AZD3965 100 nM	97.4 ± 3.1	97.92 ± 0.55	98.8 ± 1.2	110 ± 4.3	89.8 ± 4.5
co-treatment: DMSO vehicle	96.4 ± 10	95 ± 2.6	101 ± 5.8	104 ± 3.4	92.2 ± 5.2
co-treatment: GSK2194069 100 nM	101 ± 8.2	101 ± 10	100 ± 6.5	105 ± 1.5	90.9 ± 1
co-treatment: pictilisib 100 nM	110 ± 7.8	95.2 ± 6.7	104 ± 2.7	112.7 ± 0.37	77.3 ± 7.4

Cn1c2cc(S(C)=O)sc2c2cnn(Cc3cccc(N)c3)c(=O)c21 (stereo not given) [TEPP-46]
Details	area under dose-response curve, co-treatment: AZD3965 100 nM	area under dose-response curve, co-treatment: DMSO vehicle	area under dose-response curve, co-treatment: GSK2194069 100 nM	area under dose-response curve, co-treatment: pictilisib 100 nM	cell viability, 1 nM [%]	cell viability, 10 nM [%]	cell viability, 100 nM [%]	cell viability, 1000 nM [%]	cell viability, 10000 nM [%]
[1]	–	–	–	–	112	92.1	101	111	81.8
[2]	–	–	–	–	102	106	103	102	83
[3]	–	–	–	–	94.7	102	98.5	107	74.4
[4]	–	–	–	–	108	84.1	102	106	76.8
[5]	–	–	–	–	109	96.8	97.2	111	87.8
[6]	–	–	–	–	105	100	94.1	103	69.3
[7]	–	–	–	–	116	98.9	102	108	91.7
[8]	–	–	–	–	116	99.9	102	93.5	85.1
[9]	–	–	–	–	101	100	97.5	104	99.7
[10]	–	–	–	–	106	98.2	98.2	97.4	90.6
[11]	–	–	–	–	104	81.9	98.8	113	105
[12]	–	–	–	–	136	92.9	91.9	123	94.3
[13]	–	–	–	–	104	92.6	102	99.8	93.3
[14]	–	–	–	–	118	96.2	100	99.1	84
[15]	–	–	–	–	125	101	105	96.5	95.3
[16]	< 0.0301	< 0.0301	< 0.0301	< 0.0301	–	–	–	–	–

Details	IC50 (cell viability) [nM]
[17]	> 10000

cell viability [%], [18]
Details	0.001 µM	0.01 µM	0.1 µM	1 µM	10 µM
co-treatment: AZD3965 100 nM	98.7 ± 1.3	108 ± 2.5	113 ± 11	102 ± 1.3	100 ± 3.8
co-treatment: DMSO vehicle	99.6 ± 1.3	103 ± 3.2	104 ± 1.1	104 ± 1.1	107 ± 3.7
co-treatment: GSK2194069 100 nM	97.7 ± 7.9	106 ± 4.1	97.1 ± 18	104 ± 7	101 ± 1.6
co-treatment: pictilisib 100 nM	87.3 ± 9.9	106 ± 5.4	112 ± 6	98.02 ± 0.85	95.3 ± 2.4
